Results published in patent US7919481B2, “Inositol pyrophosphates, and methods of use thereof” (NormOxys, Inc., priority 2002, dated 2011).
Where “and” joins values, the source holds several entries; their conditions need not be identical. Identical values can stand only once. Entries after “also recorded” stand apart in the source; their conditions may differ. Blank lines part the entries; values can stand above or below the compound they belong to.

How the values were obtained:
[1] = tested on: human RBCs; details: IHP encapsulated in human RBCs by continuous-flow electroporation; cited from earlier work
[2] = tested on: RBC; experiment: Blood counts of orally treated mice; assay type: in vivo, C57BL/6 mice; details: day 10, single mice; oral 27 mM for 4 days
[3] = constant concentration 22 mM, human serum/1-octanol; cited from earlier work
[4] = tested on: circulating RBC; experiment: Oral administration in drinking water, P50 of circulating RBC; assay type: in vivo, C57BL/6 mice; details: for P50 10 d %: P50 shift on day 10, single mice
[5] = tested on: RBC; experiment: Blood counts of orally treated mice; assay type: in vivo, C57BL/6 mice; details: for RBC × 10^6/mm3: day 7, single mice, oral 27 mM for 4 days
Text: Blood from mice, having ingested kf111 or IHP in water (for 4 days) or water only was collected on day 0, 7 and 11, in order to assess any differences in the blood count (and the amount of erythropoietin in the sera) of treated and control mice. […] Erythropoietin assays in all mice sera will be reported soon.

[6] = tested on: porcine RBCs; experiment: Intravenous injection in piglets, P50 of blood; assay type: in vivo, piglet; details: iv injection of 1 g/kg body weight; maximum
Description: (§1) An in vivo-experiment was performed on one 8 week-old normal piglet (body weight: 17 kg). The piglet was anaesthesized with 5% Isoflurane, 0.7 L/min N2O and 2.0 L/min O2 for 20-30 minutes, when kf111 was injected, or blood was taken from the ear vein, respectively. The compound injected iv at a concentration of 27 g kf111/100 ml water (volume injected: 63 ml, pH 6.5, containing 17 g kf111=1 g/1 kg body weight) was not harmful to the animal, when injected into the piglet's ear vein over at least 10 minutes.
(§2) Iv injection of 1 g kf111/kg body weight caused a significant right shift of the P50-value (up to 20%) in porcine RBCs. An almost saturated kf111 solution, pH 6.7, was injected intravenously into two piglets (both of ˜18 kg body weight) (27 g kf111/100 ml=1.5 g/kg body weight) over 20 minutes.

[7] = tested on: piglets; experiment: Tolerability / lethality of iv injection in piglets; assay type: in vivo, piglet
Description: as §1, §2

[8] = Blood counts and serum electrolytes of iv treated piglets; assay type: in vivo, piglet
Text: Blood from the 2 piglets, having received kf111 (1 g/kg body weight) was collected before injection, 2 hrs after, and daily over a period of 14 days after injection, in order to assess any differences in the blood counts of treated and non treated piglets. The following conclusions for piglets having received 1 g kf111 per kg body weight can be drawn: • 1. […] Increasing numbers of reticulocytes were counted in blood samples of the injected animals taken 5-14 days after injection (up to 3.0% on day 14). • 4.
Blood was taken from the heart of the dead animals for the determination of blood counts as well as the amount of sodium, potassium and calcium in the sera. All numbers of blood cells (hematocrit, white blood cells etc.) were halved. The amount of potassium and calcium was normal, while sodium was doubled (before injection: 120-140 mmol/L; after injection: 245 mmol/L). Apparently, the large amount of sodium in kf111 (6 Na^+/molecule) caused the death of the animals. It appears that up to 1 g kf111 per kg body weight can be injected iv, (if injected slowly) without harmful effects for the animals. […] The piglets were thirsty after the treatment. *a second piglets was injected with kf111 at this concentration, after 2 piglets had died after iv injection of 1.2 g kf111 (or even more) per kg body weight. • 2. Higher amounts of kf111, injected via iv, killed the animals. • 3. A 1 g kf111 per kg body weight—injection is necessary to cause a significant right shift of the P50 value (up to 20%). • 4. […] In piglets having received 1 g of kf111/kg body weight, a tendency to the decrease in hematocrit was observed. • 6. […] The number of reticulocytes decreased slightly 24 to 72 hrs after injection (from 1.5% to 0.5%). Starting with day 3 after injection of the allosteric effector, the number of reticulocytes increased by about 3% for a period of 14 days.

[9] = tested on: circulating RBC; experiment: P50 shift of circulating RBC after (intraperitoneal) injection in mice; details: for P50 Shift % 2 h, Mean +/− SD / P50 Shift % 24 h, Mean +/− SD: 5 animals; for P50 Shift % 2 h / P50 Shift % 24 h: single animals
[10] = tested on: mouse whole blood; experiment: In vitro P50 in whole blood after incubation with effector; assay type: cell-based; details: effector 60 mM
Description: (§3) As usual, pH's for the compound-solutions were adjusted to ˜7.0, osmolarities for both solutions were determined (325-373 mOsM) prior to effectors, and whole blood volumes at 1:1 ratios were incubated.

[11] = tested on: human whole blood; experiment: as above; assay type: cell-based; details: effector 60 mM
Description: as §3

[12] = tested on: pig whole blood; experiment: as above; assay type: cell-based; details: effector 60 mM
Description: as §3

[13] = tested on: whole blood; experiment: In vitro incubation of whole blood of three species, summary statements; assay type: cell-based, human, mouse and pig
Description: as §3

[14] = tested on: C57BL/6 mice; experiment: Tolerability of intraperitoneal injection in mice; assay type: in vivo
[15] = tested on: C57BL/6 mice; experiment: Tolerability of oral administration; assay type: in vivo; details: 27 mM in drinking water, 4 days
Description: The sodium salt of the tri-pyrophosphate derivative of IHP (kf111) was dissolved in drinking (not deionized) water at a 20 g/L-concentration (=27 mM) and offered for drinking ad libitum. As in all experiments performed before, pH was adjusted to ˜7.0.
Twelve C57BL/6 mice drank kf111 over 4 days ([…]). Three control mice drank either pure water, or a solution of IHP (inositol hexaphosphate) at the same concentration and pH as kf111 (4 mice). […] Blood was collected from the tail vein of the 19 C57BL/6 mice on day 0 (before treatment started), 1, 2, 4, 6, 7, 8, 10, 11 and 12, in order to measure P50 values.

[16] = Toxicity, general statements on the biological experiments; assay type: in vivo
[17] = dead piglets after lethal iv dose

RBC × 10^6/mm3 [2]: 10.77 × 10^6/mm3
RBC × 10^6/mm3 [5]: 9.6 × 10^6/mm3
SMILES: O=P(O)(O)O[C@H]1[C@H](OP(=O)(O)O)[C@@H](OP(=O)(O)O)[C@H](OP(=O)(O)O)[C@@H](OP(=O)(O)O)[C@H]1OP(=O)(O)O [IHP, inositol hexaphosphate, reference compound]
P50 of IHP-modified RBCs [1]: approximately 50 torr
equiv of ammonium ions required to reach Kos(in serum) of 1 [3]: 8 equiv
P50 7 d % ([4]; P50 shift on day 7, single mice, oral 27 mM for 4 days): 3%
P50 10 d % ([4]; oral 27 mM for 4 days): 0%
shift of the ODC ([4]; oral in drinking water, same concentration as kf111): absence of shift

SMILES: O=P1([O-])OP(=O)([O-])O[C@H]2[C@H](O1)[C@@H]1OP(=O)([O-])OP(=O)([O-])O[C@@H]1[C@H]1OP(=O)([O-])OP(=O)([O-])O[C@H]21.[Na+].[Na+].[Na+].[Na+].[Na+].[Na+] [kf111, Hexasodium Salt of Myo-inositol 1,6:2,3:4,5-Tripyrophosphate]
RBC × 10^6/mm3 [2]: 9.35 × 10^6/mm3 and 8.60 × 10^6/mm3 and 8.95 × 10^6/mm3 and 8.88 × 10^6/mm3 and 8.70 × 10^6/mm3 and 8.73 × 10^6/mm3 and 7.65 × 10^6/mm3 and 7.80 × 10^6/mm3
right shift of the P50-value [6]: up to 20%
P50 10 d % ([4]; oral 27 mM for 4 days): 10% and 6% and 12% and 16% and 8% and 11% and 9%
right shift of P50 ([4]; oral, 20 g/L (27 mM) in drinking water over 4 days, maximum): up to 31%
harmfulness of iv injection ([7]; 1 g/kg body weight, injected slowly (at least 10 min)): not harmful
outcome of iv injection of almost saturated solution ([7]; 27 g/100 ml, 1.5 g/kg planned over 20 minutes, two piglets): Both piglets died
dose that can be injected iv without harmful effects ([7]; if injected slowly): up to 1 g kf111 per kg body weight
dose received at which piglets died ([7]; iv, saturated solution): < 1.3 g/kg body weight
number of other cells such as white blood cells ([8]; 1 g/kg iv): no major differences
reticulocytes ([8]; 1 g/kg iv, day 14 (samples 5-14 days after injection), maximum): up to 3.0%
reticulocytes after decrease ([8]; 1 g/kg iv, first 3 days (24 to 72 hrs) after injection): 0.5%
hematocrit and number of RBC ([8]; 1 g/kg iv, first days after injection): slight decrease
increase of the number of reticulocytes ([8]; 1 g/kg iv, starting with day 3, for a period of 14 days): about 3%
amount of potassium and calcium in sera [8, 17]: normal
numbers of blood cells (hematocrit, white blood cells etc.) [8, 17]: halved
sodium in sera after injection ([8]; dead piglets, before injection 120-140 mmol/L): 245 mmol/L
right shift of the ODC of circulating RBC, % of the basal value ([9]; after ip injection): 31%
P50 Shift % 2 h, Mean +/− SD ([9]; ip 45 mM): 11.8 +/− 1.16%
P50 Shift % 2 h ([9]; ip 45 mM): 13% (2×) and 10% and 12% and 11%
P50 Shift % 24 h, Mean +/− SD ([9]; ip 45 mM): 13.6 +/− 1.02%
P50 Shift % 24 h ([9]; ip 45 mM): 14% (2×) and 12% and 13% and 15%
P50 Shift % 2 h, Mean +/− SD ([9]; ip 60 mM): 16.9 +/− 3.48%
P50 Shift % 2 h ([9]; ip 60 mM): 12% and 14% and 17% and 21% and 20.5%
P50 Shift % 24 h, Mean +/− SD ([9]; ip 60 mM): 17.2 +/− 2.1%
P50 Shift % 24 h ([9]; ip 60 mM): 14% and 16% and 17% and 20% and 19%
P50 Shift % 2 h, Mean +/− SD ([9]; ip 120 mM): 26.0 +/− 2.28%
P50 Shift % 2 h ([9]; ip 120 mM): 28% and 29% and 24% and 26% and 23%
P50 Shift % 24 h, Mean +/− SD ([9]; ip 120 mM): 24.8 +/− 2.7%
P50 Shift % 24 h ([9]; ip 120 mM): 28% (2×) and 22% (2×) and 24%
P50 Shift % 2 h, Mean +/− SD ([9]; ip 150 mM): 27.0 +/− 1.78%
P50 Shift % 2 h ([9]; ip 150 mM): 26% (2×) and 28% and 30% and 25%
P50 Shift % 24 h, Mean +/− SD ([9]; ip 150 mM): 25.8 +/− 2.78%
P50 Shift % 24 h ([9]; ip 150 mM): 25% and 26% and 31% and 24% and 23%
RBC × 10^6/mm3 [5]: 6.60 × 10^6/mm3 and 5.73 × 10^6/mm3 and 6.35 × 10^6/mm3 and 5.64 × 10^6/mm3 and 5.45 × 10^6/mm3 and 8.76 × 10^6/mm3 and 7.70 × 10^6/mm3 and 6.54 × 10^6/mm3
number of RBC ([5]; mice having ingested the compound for 4 days): reduced significantly
number of white blood cells ([5]; treated vs control groups): no major differences
P50 Increase % ([10]; 1:1): 29%
P50 mm Hg ([10]; 1:1, control 36.7): 47.4 mm Hg
P50 Increase % ([11]; 1:1): 39%
P50 mm Hg ([11]; 1:1, control 22.1): 30.8 mm Hg
P50 Increase % ([12]; 1:1): 40%
P50 mm Hg ([12]; 1:1, control 32.2): 45.2 mm Hg
lysis of RBCs ([13]; in vitro incubation with whole blood): never occurred; also recorded: no lysis of RBCs was observed
right shift in the Hb-O2 dissociation curve, all blood samples ([13]; whole blood of human, mouse and pig, 60 mM): up to 40%
tolerability in mice ([14]; concentration of (up to) 120 mM): well tolerated
tolerability in mice ([14]; ip, concentrations up to 150 mM): well tolerated
harmfulness when applied orally [15]: not harmful
toxicity ([16]; even in a concentration of 160 mM): no toxicity
toxicity / tolerability ([16]; general statement): no toxicity and excellent tolerability
